In general, IC50 refers to the midpoint of a concentration-inhibition curve. Read a high IC50 as lower potency.

The target of one data set is T1, HIV-1 capsid protein (Human immunodeficiency virus type 1 group M subtype B, UniProt P12493).
T1 construct: made in house; host or cells: E. coli (pET30 vector)
Kind of data set: In vitro polymerization of HIV-1 capsid protein (His-CA/GST-CA, Eu cryptate/XL665 energy transfer). Format: biochemical, HIV-1 NL4-3. As to conditions: for Imax: 37° C., 2 h incubation. The source says: • 1. MAb Anti GST-Eu cryptate (Cisbio) • 2. MAb Anti 6HIS-XL665 (Cisbio) • 3. His tag HIV-1 capsid protein (hereinafter referred to as His-CA) • 4. GST tag HIV-1 capsid protein (hereinafter referred to as GST-CA) • 5. 384-well unbound surface microplate, white (Corning) • 6. Microplate reader (BMG)
The HIV-1 capsid proteins aggregate spontaneously in high-salt solutions. Capsid protein sequences derived from HIV-1 NL4-3 strains (GeneBank AF324493.2) were separately tagged with 6His tag and GST tag sequences at the C-terminus, cloned into pET30 vectors, and expressed and separately tagged for expression in E. coli system and purified. His-CA and GST-CA were mixed at high-salt concentrations, and the level of polymerization of capsid proteins was detected using GST antibody labeled with Eu3+-Cryptate (energy donor) and His antibody labeled with XL665 (energy acceptor). Since the excitation spectrum of Eu3+-Cryptate overlapped with the excitation spectrum of XL665, when the capsid proteins with these two tags formed a poly complex, the energy donor and the energy acceptor could be drawn to a sufficiently close distance, the energy donor released part of the captured energy under the excitation of an external light source (such as a xenon lamp or a laser), with the emission wavelength being 620 nM, part of the resonance was transferred to the energy acceptor to excite the energy acceptor, with the emission wavelength being 665 nM, and an optical signal was generated, the signal intensity of which was in direct proportion to the degree of polymerization of the tag proteins.
His-CA was diluted to 2 μM in a clean tube with protein diluent (50 mM Tris-HCl, pH 8.0, 50 mM NaCl, 0.4 mM MgCl2, 0.05% Triton X-100, 2% glycerol) while MAb Anti 6HIS-XL665 at a final concentration of 260 nM was added; GST-CA was diluted to 20 nM with protein diluent in another clean tube while MAb Anti GST-Eu cryptate at a final concentration of 3.33 nM was added and incubated on ice for half an hour. Compounds were first formulated into a concentration of 20 mM with DMSO, then diluted to a first concentration of 2 mM with DMSO and serially 5-fold diluted to the 8th concentration. Control wells were set and added with DMSO, and serially-diluted compounds were then 20-fold diluted with protein diluent to 10-fold working concentrations. Preparation of capsid protein polymerization liquid at 2-fold concentration: 50 mM Tris-HCl, pH 8.0, 1 M NaCl, 800 mM KF; to a pre-cooled white round-bottomed 384-well plate were added 4 uL of His-CA-His antibody mixture, 4 uL of GST-CA-GST antibody mixture, 2 uL of the compounds at 10-fold concentration and 10 uL of capsid protein polymerization reaction liquid at 2-fold concentration, the plate was sealed with a light-shielding sealing plate membrane after uniformly mixing, and the reaction plate was placed in a 37° C. incubator for incubation for 2 h. After incubation, the samples were excited with an excitation light at 337 nM, and signal values at 620 nM and 665 nM were collected for detection, wherein Ratio values=(665 nM/620 nM signal)×10000 was calculated according to the signal values. IC50 values for compounds were calculated using Graphpad Prism software based on each concentration of the compounds and the corresponding Ratio values.

Data set [1] in a line: Thermodynamic stability test of atropisomerism (LC-MS). Format: physicochemical. The method, then: Agilent 1200 DAD model LC-MS; column: waters sunfire C18, 4.6×75 mm, 3.5 μm; mobile phase: water (0.1% trifluoroacetic acid):acetonitrile (0.1% trifluoroacetic acid).
The compounds of Examples 1-1a, 1-1b were atropisomers of each other and had different retention times in the LC-MS spectra, and the tautomerism of the atropisomers could be detected by LC-MS.
Compound 1-1a (1.5 mg) was dissolved in acetonitrile (1.0 mL), and the reaction solution was heated at 40° C. for 1.0 h, and the change in purity of compound 1-1a was detected by LC-MS. Compound 1-1a (1.5 mg) was dissolved in dimethyl sulfoxide (1.0 mL), and the reaction solution was heated at 120° C. for 3.0 h, and the change in purity of compound 1-1a was detected by LC-MS.
The same procedure was used to test the change in purity of compound 1-1b at 40° C. and 120° C.
The compounds of Examples 5-1, 5-2 were atropisomers of each other and had different retention times in the LC-MS spectra, and the tautomerism of the atropisomers could be detected by LC-MS.
Compound 5-1 (1.0 mg) was dissolved in DMSO (1.0 mL), and the reaction solution was heated at 37° C. and 120° C. for 3.0 h, respectively, and the change in purity of compound 5-1 was detected by LC-MS.

At HIV-1 capsid protein, `CC(C)(C#Cc1nc([C@H](Cc2cc(F)cc(F)c2)NC(=O)Cn2nc(C(F)(F)F)c3c2C(F)(F)[C@@H]2C[C@H]32)c(-c2ccc(Cl)c3c(NS(C)(=O)=O)nn(CC(F)(F)F)c23)c2c1CCC2)S(=O)(=O)C1CC1` (atropisomer, axis not shown; (aR)) [Example 3, N—((S)-1-((R)-4-(4-chloro-3-(methanesulfonamido)-1-(2,2,2-trifluoroethyl)-1H-indazol-7-yl)-1-(3-(cyclopropylsulfonyl)-3-methyl-but-1-yn-1-yl)-6,7-dihydro-5H-cyclopenta[c]pyridin-3-yl)-2-(3,5-difluorophenyl)ethyl)-2-((3bS,4aR)-5,5-difluoro-3-(trifluoromethyl)-3b,4,4a,5-tetrahydro-1H-cyclopropa[3,4]cyclopenta[1,2-c]pyrazol-1-yl)acetamide] showed an IC50 of 24 nM and an Imax of 98%.

As for `CC(C)(C#Cc1nc([C@H](Cc2cc(F)cc(F)c2)NC(=O)Cn2nc(C(F)(F)F)c3c2C(F)(F)[C@@H]2C[C@H]32)c(-c2ccc(Cl)c3c(NS(=O)(=O)C4CC4)nn(CC(F)(F)F)c23)c2c1CCC2)S(C)(=O)=O` (atropisomer, axis not shown; (aR)) [Example 2, N—((S)-1-((R)-4-(4-chloro-3-(cyclopropylsulfonamide)-1-(2,2,2-trifluoroethyl)-1H-indazol-7-yl)-1-(3-methyl-3-(methylsulfonyl)but-1-yn-1-yl)-6,7-dihydro-5H-cyclopenta[c]pyridin-3-yl)-2-(3,5-difluorophenyl)ethyl)-2-((3bS,4aR)-5,5-difluoro-3-(trifluoromethyl)-3 b,4,4a,5-tetrahydro-1H-cyclopropa[3,4]cyclopenta[1,2-c]pyrazol-1-yl)acetamide], at HIV-1 capsid protein, half-maximal inhibition (IC50) required 19 nM and the Imax turned out to be 100%.

As for `CC(C)(C#Cc1nc([C@H](Cc2cc(F)cc(F)c2)NC(=O)Cn2nc(C(F)(F)F)c3c2C(F)(F)[C@@H]2C[C@H]32)c(-c2ccc(Cl)c3c(NS(C)(=O)=O)nn(CC(F)(F)F)c23)c2ccccc12)S(C)(=O)=O` (atropisomer, axis not shown; (aR)) [Example 6, N—((S)-1-((R)-4-(4-chloro-3-(methanesulfonamido)-1-(2,2,2-trifluoroethyl)-1H-indazol-7-yl)-1-(3-methyl-3-(methanesulfonyl)but-1-yn-1-yl)isoquinolin-3-yl)-2-(3,5-difluorophenyl)ethyl)-2-((3bS,4aR)-5,5-difluoro-3-(trifluoromethyl)-3b,4,4a,5-tetrahydro-1H-cyclopropa[3,4]cyclopenta[1,2-c]pyrazol-1-yl)acetamide], on HIV-1 capsid protein, it took 107 nM to reach half-maximal inhibition (IC50) and the Imax is reported as 75%.

For the molecule `CC(C)(C#Cc1nc([C@H](Cc2cc(F)cc(F)c2)NC(=O)Cn2nc(C(F)(F)F)c3c2C(F)(F)[C@@H]2C[C@H]32)c(-c2ccc(Cl)c3c(NS(C)(=O)=O)nn(CC(F)(F)F)c23)c2c1CCCC2)S(C)(=O)=O` (single isomer, unassigned) [Example 5-1], the “atropisomer stability (change in purity by LC-MS)” value in data set [1] (heated at 37° C. for 3.0 h in DMSO) and in data set [1] (heated at 120° C. for 3.0 h in dimethyl sulfoxide) was “stable single-configuration compound” throughout. At HIV-1 capsid protein, this molecule displayed an IC50 of 37 nM. On HIV-1 capsid protein, the Imax stood at 108%.

At HIV-1 capsid protein, `CC(C)(C#Cc1nc([C@H](Cc2cc(F)cc(F)c2)NC(=O)Cn2nc(C(F)(F)F)c3c2C(F)(F)[C@@H]2C[C@H]32)c(-c2ccc(Cl)c3c(NS(=O)(=O)C4CC4)nn(CC(F)(F)F)c23)c2c1CCC2)S(=O)(=O)C1CC1` (atropisomer, axis not shown; (aR)) [Example 4, N—((S)-1-((R)-4-(4-chloro-3-(cyclopropylsulfonamide)-1-(2,2,2-trifluoroethyl)-1H-indazol-7-yl)-1-(3-(cyclopropylsulfonyl)-3-methyl-but-1-yn-1-yl)-6,7-dihydro-5H-cyclopenta [c]pyridin-3-yl)-2-(3,5-difluorophenyl)ethyl)-2-((3bS,4aR)-5,5-difluoro-3-(trifluoromethyl)-3b,4,4a,5-tetrahydro-1H-cyclopropa[3,4]cyclopenta[1,2-c]pyrazol-1-1)acetamide] yielded an IC50 of 68 nM and an Imax of 91%.

The values above are taken from patent publication US12428396B2, “Fused pyridine ring derivative, preparation method therefor, and pharmaceutical use thereof” (priority 2019, dated 2025).
